Reference: PubChem BioAssay AID1963438 (Molecular Pharmacology Branch, DTP, NCI, 2024)

Tested on: NCI-H510 multicellular tumor spheroid growth, % test/control
Assay: Anticancer human tumor NCI-H510 cell line growth inhibition [Asc];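 also: spheroids exposed to agents for 7 days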;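 as to viability, T/C: 100% = DMSO vehicle control wells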
Details: for IC50: curve of first compound; for viability, T/C: stronger effect = lower value
Method: Multicellular complex tumor spheroid response to apoptosis pathway targeting inhibitors Alrizomadlin, Pelcitoclax, and Dasminapant in combination with a variety of drugs and investigational agents in selected tumor cell lines
The MDM2 inhibitor alrizomadlin, the Bcl-2/Bcl-xL inhibitor pelcitoclax, and the IAPs inhibitor dasminapant were evaluated both individually and in combination with standard of care and investigational anticancer small molecules within a complex spheroid model of solid tumors. . Complex spheroids include a stromal component modeled by human endothelial cells (HUVEC) and fibroblasts modeled by human mesenchymal stem cells (MSCs). The concentration ranges selected for each drug and investigational agent were based upon clinically achievable concentrations if the clinical Cmax of the agent was known.
Compounds. The drugs and investigational agents: alrizomadlin (APG-115; NSC831270), pelcitoclax (APG-1252; NSC835773), dasminapant (APG-1387;NSC834197), TAK-243 (NSC785004), copanlisib (NSC809693), olaparib (NSC753686), talazoparib (NSC767125), cobimetinib (NSC 768068), eltanexor (KPT-8602, NSC 794443), abemaciclib (NSC 768073), sotorasib (NSC818433), adagrasib (NSC 831453), MRTX-1133 (NSC 836407), Iadademestat (ORY1001, NSC 806812), and RMC-4630 (NSC839698), were obtained from the NCI Developmental Therapeutics Program Chemical Repository. The FDA-approved anticancer drug set is available from the Developmental Therapeutics Program at https://dtp.cancer.gov/organization/dscb/obtaining/available plates.htm. […] The stock solutions were prepared in dimethyl sulfoxide (DMSO, Sigma-Aldrich, St. Louis, MO, cat. D2650) at 800-fold the tested concentration and stored at -70 degrees C prior to their use. All drugs and investigational agents were tested over a range starting from a high concentration at or near the clinical Cmax and decreasing in half-log increments. If the clinical Cmax for an agent had not been determined, the highest concentration tested was 10 microM.
The patient-derived cancer (PDC) cell lines include five colon adenocarcinomas: 186277-243-T-J2-PDC, 616215-338-R-J1-PDC, 439559-082-T-J2-PDC, 463943-066-T-J2-PDC, and 519858-162-T-J1-PDC; three pancreatic carcinomas: 323965-272-R-J2-PDC, 521955-158-R6-J3-PDC, and 521955-158-R2-J5-PDC; two uterine sarcomas: 327498-152-R-J2-PDC and 993429-296-R-J1-PDC; two rhabdomyosarcomas: 755483-174-R-J1-PDC and 772245-204-R-J1-PDC; two soft tissue sarcomas: 126254-015-R-J1-PDC and 494315-158-R-J1-PDC; two malignant fibrous histiocytomas: 317291-083-R-J1-PDC and 596521-263-R-J1-PDC; two breast carcinomas: 171881-019-R-J1-PDC and 885512-296-R-J2-PDC; and one ovarian carcinoma: 6556581-035-R-J-PDC were obtained from the NCI PDMR, (https://pdmr.cancer.gov). The established cell lines HSSY-2 synovial sarcoma (RRID:CVCL 8719), SYO-1 synovial sarcoma (RRID:CVCL_7146), MPNST malignant peripheral neural sheath tumor were obtained from the Sloan Kettering Institute. The following established cell lines were purchased from the American Type Culture Collection (ATCC, Manassas, VA), Sor the received from the NCI repository:, PANC-1 pancreatic carcinoma (CRL-1469, RRID:CVCL_0480), OVCAR-5 ovarian carcinoma (RRID:CVCL_1628), OVCAR-8 ovarian carcinoma (RRID:CVCL_1629), , MCF-7 breast carcinoma (CRL-12584, RRID:CVCL_0031), MDA-MB-231 breast carcinoma (CRL-12532, RRID:CVCL_0062), NCI-H1876 small cell lung carcinoma (CRL-5902, RRID:CVCL_1503), NCI-H510A small cell lung carcinoma (HTB-184, RRID:CVCL_1565), NCI-H1417 (CRL-5869, RRID:CVCL_1469), and NCI-H196 small cell lung carcinoma (CRL-5823, RRID:CVCL_1509). Dr. Peter Houghton (Greehey Children's Cancer Research Institute, University of Texas Health Science Center, San Antonio, TX) provided Rh-18 rhabdomyosarcoma (RRID:CVCL_1659). Pooled donor human umbilical vein endothelial cells (HUVEC, Lonza, cat. CC-2519) and human mesenchymal stem cells (hMSC, Lonza, cat. PT-2501) were purchased from Lonza (Walkersville, MD).
Cell Culture. […]

CNC(C)C(=O)NC1CN(S(=O)(=O)c2cccc(S(=O)(=O)N3CCC4CCC(C(=O)NC(c5ccccc5)c5ccccc5)N4C(=O)C(NC(=O)C(C)NC)C3)c2)CCC2CCC(C(=O)NC(c3ccccc3)c3ccccc3)N2C1=O (stereo not given) + Cc1c(S(C)(=O)=O)c(-c2cc(F)cc(N3CCN(c4ccc(NS(=O)(=O)c5ccc(NC(CCN6CCC(C(=O)OCCCP(=O)(O)O)CC6)CSc6ccccc6)c(S(=O)(=O)C(F)(F)F)c5)cc4)CC3)c2)c(-c2ccc(Cl)cc2)n1C(C)C
IC50 (second compound 0.1 µM): > 1 µM | IC50 (second compound 0.316 µM): > 1 µM | IC50 (second compound 1 µM): > 1 µM | IC50 (second compound 3.16 µM): > 1 µM | IC50 (second compound 10 µM): > 1 µM | viability, T/C (second compound 0.1 µM, first compound 0.00316 µM): 114% | viability, T/C (second compound 0.1 µM, first compound 0.01 µM): 122% | viability, T/C (second compound 0.1 µM, first compound 0.0316 µM): 111% | viability, T/C (second compound 0.1 µM, first compound 0.1 µM): 120% | viability, T/C (second compound 0.1 µM, first compound 0.316 µM): 99.8% | viability, T/C (second compound 0.1 µM, first compound 1 µM): 128% | viability, T/C (second compound 0.316 µM, first compound 0.00316 µM): 93.6% | viability, T/C (second compound 0.316 µM, first compound 0.01 µM): 117% | viability, T/C (second compound 0.316 µM, first compound 0.0316 µM): 107% | viability, T/C (second compound 0.316 µM, first compound 0.1 µM): 102% | viability, T/C (second compound 0.316 µM, first compound 0.316 µM): 104% | viability, T/C (second compound 0.316 µM, first compound 1 µM): 112% | viability, T/C (second compound 1 µM, first compound 0.00316 µM): 115% | viability, T/C (second compound 1 µM, first compound 0.01 µM): 97.5% | viability, T/C (second compound 1 µM, first compound 0.0316 µM): 107% | viability, T/C (second compound 1 µM, first compound 0.1 µM): 103% | viability, T/C (second compound 1 µM, first compound 0.316 µM): 76.9% | viability, T/C (second compound 1 µM, first compound 1 µM): 91% | viability, T/C (second compound 3.16 µM, first compound 0.00316 µM): 102% | viability, T/C (second compound 3.16 µM, first compound 0.01 µM): 112% | viability, T/C (second compound 3.16 µM, first compound 0.0316 µM): 109% | viability, T/C (second compound 3.16 µM, first compound 0.1 µM): 96.6% | viability, T/C (second compound 3.16 µM, first compound 0.316 µM): 85.7% | viability, T/C (second compound 3.16 µM, first compound 1 µM): 104% | viability, T/C (second compound 10 µM, first compound 0.00316 µM): 110% | viability, T/C (second compound 10 µM, first compound 0.01 µM): 104% | viability, T/C (second compound 10 µM, first compound 0.0316 µM): 70.4% | viability, T/C (second compound 10 µM, first compound 0.1 µM): 87.7% | viability, T/C (second compound 10 µM, first compound 0.316 µM): 111% | viability, T/C (second compound 10 µM, first compound 1 µM): 98.6%
